# In ChEMBL document CHEMBL5465560, “Selectivity Literature for EUbOPEN Chemogenomic Library” (2024):
# Legend:
# [1] = molecular target: T1, Dual specificity mitogen-activated protein kinase kinase 6 (Homo sapiens) (UniProt P52564); test: Selectivity interaction (Kinase panel (DSF assay)) EUB0001558a MAP2K6
# T1 sequence (whole entry): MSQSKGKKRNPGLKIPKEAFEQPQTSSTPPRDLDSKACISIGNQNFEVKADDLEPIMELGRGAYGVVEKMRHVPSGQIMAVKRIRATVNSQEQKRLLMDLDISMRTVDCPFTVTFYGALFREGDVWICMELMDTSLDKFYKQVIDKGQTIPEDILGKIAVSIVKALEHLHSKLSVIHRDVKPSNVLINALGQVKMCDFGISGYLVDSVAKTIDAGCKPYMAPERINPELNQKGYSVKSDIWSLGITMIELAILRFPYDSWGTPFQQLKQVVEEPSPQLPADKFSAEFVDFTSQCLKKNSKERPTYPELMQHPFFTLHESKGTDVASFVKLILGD
# [2] = molecular target: Ephrin type-A receptor 7 (Homo sapiens) (UniProt Q15375); test: Selectivity interaction (Kinase panel (DSF assay)) EUB0001559a EPHA7
# Chain of Ephrin type-A receptor 7 (Homo sapiens) (Q15375 28-998 limits assumed): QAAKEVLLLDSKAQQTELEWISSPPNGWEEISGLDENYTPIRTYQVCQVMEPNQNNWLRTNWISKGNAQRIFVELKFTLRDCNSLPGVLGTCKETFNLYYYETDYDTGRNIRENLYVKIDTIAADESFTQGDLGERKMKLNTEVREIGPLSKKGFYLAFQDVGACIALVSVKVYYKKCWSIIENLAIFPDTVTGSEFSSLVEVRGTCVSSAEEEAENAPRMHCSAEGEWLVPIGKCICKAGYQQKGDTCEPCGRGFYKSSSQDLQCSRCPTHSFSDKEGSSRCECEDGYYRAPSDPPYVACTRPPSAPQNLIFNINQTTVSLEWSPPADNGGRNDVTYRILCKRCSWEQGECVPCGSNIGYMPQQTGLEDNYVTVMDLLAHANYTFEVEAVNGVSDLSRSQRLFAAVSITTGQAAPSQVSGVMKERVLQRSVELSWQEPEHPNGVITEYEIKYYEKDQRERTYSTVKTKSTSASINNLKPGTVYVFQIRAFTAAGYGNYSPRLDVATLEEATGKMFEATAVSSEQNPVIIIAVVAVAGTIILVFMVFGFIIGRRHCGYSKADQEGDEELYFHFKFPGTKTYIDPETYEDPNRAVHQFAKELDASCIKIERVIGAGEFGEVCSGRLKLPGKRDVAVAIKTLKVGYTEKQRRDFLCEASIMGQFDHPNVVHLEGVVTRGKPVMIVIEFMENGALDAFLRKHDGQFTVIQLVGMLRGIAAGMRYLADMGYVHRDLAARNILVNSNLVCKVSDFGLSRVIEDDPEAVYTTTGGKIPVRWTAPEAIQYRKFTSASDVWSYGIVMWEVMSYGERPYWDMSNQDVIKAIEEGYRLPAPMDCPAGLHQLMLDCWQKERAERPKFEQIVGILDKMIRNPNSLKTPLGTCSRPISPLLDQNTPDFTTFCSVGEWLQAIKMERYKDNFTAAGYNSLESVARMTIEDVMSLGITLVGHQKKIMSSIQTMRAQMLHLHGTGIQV
# [3] = molecular target: T2, Tyrosine-protein kinase ITK/TSK (Homo sapiens) (UniProt Q08881); test: Selectivity interaction (SelectScreen profiling (Invitrogen)) EUB0000607a ITK; details: at 2 µM
# T2 sequence (whole entry): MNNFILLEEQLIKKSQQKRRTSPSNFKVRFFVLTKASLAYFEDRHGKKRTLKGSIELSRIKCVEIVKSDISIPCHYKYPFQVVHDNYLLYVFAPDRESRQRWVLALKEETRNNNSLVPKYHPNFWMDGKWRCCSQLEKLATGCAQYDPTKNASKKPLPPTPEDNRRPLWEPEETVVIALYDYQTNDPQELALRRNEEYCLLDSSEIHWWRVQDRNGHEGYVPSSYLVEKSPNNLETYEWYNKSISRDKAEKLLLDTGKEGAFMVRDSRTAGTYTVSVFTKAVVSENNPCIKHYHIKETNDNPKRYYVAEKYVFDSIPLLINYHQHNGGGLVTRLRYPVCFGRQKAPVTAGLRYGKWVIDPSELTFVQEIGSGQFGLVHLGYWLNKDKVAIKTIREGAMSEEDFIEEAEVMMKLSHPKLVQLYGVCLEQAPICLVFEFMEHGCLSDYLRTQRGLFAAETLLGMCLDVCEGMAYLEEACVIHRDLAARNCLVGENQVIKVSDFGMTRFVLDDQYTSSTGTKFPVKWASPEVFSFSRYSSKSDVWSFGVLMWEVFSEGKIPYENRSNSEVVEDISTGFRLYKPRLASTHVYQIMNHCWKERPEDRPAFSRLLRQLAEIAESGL
# [4] = molecular target: T3, Serine/threonine-protein kinase Nek1 (Homo sapiens) (UniProt Q96PY6); test: Selectivity interaction (KinomeScan (DiscoverX)) EUB0001049a NEK1; details: at 1 µM
# T3 sequence (whole entry): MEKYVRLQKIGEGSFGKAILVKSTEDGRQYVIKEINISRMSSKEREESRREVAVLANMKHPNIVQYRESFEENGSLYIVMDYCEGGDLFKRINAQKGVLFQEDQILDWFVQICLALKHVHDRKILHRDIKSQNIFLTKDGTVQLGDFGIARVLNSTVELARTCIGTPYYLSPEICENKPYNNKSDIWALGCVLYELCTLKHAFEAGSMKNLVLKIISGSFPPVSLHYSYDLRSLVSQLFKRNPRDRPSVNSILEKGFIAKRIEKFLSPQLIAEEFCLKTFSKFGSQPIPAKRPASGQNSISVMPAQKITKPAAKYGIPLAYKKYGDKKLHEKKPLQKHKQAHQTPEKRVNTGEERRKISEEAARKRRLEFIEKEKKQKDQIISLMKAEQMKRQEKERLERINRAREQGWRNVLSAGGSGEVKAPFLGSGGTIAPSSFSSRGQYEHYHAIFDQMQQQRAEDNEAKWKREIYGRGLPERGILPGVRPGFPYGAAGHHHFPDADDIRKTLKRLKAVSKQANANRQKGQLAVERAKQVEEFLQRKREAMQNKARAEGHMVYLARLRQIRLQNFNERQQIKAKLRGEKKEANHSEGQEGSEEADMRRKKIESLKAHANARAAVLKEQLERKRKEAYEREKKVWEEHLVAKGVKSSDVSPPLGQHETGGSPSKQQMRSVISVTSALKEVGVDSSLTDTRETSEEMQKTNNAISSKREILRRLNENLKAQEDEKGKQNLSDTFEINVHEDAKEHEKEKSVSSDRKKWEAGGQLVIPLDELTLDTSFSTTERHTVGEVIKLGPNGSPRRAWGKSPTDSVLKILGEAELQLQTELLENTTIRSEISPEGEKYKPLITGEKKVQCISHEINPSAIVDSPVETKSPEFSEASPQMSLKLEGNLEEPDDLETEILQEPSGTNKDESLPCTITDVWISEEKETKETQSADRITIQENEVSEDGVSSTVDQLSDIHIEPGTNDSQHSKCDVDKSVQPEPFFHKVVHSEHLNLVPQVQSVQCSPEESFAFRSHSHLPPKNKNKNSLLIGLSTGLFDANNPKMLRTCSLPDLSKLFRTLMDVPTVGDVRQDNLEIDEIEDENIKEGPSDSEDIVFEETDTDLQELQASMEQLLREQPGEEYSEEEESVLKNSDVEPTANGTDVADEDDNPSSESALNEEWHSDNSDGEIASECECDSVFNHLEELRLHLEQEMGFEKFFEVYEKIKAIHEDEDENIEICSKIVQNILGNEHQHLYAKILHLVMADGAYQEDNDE
smiles,measurement,setting,value
CC(C)(O)[C@H](F)CN1Cc2cc(NC(=O)c3cnn4cccnc34)c(N3CCOCC3)cc2C1=O,dTM,[1],0.3 K
CN(C(=O)c1cnn2cccnc12)c1cc2c(cc1N1CCOCC1)C(=O)N(C[C@@H](F)C(C)(C)O)C2,dTM,[2],0.1 K
CNC(=O)Nc1ccc(-c2nc(N3CC4CCC(C3)O4)c3cnn(C4CCC5(CC4)OCCO5)c3n2)cc1,% of inhibition,[3],2%
COc1cc(Nc2nc(C)cc(-c3cnn4nc(OC)ccc34)n2)cc(C(F)(F)F)c1,% of control,[4],100%
